# Results as given in US7208481B2, “Aminodiphosphonate apolipoprotein E modulators” (ILEX Products, Inc., priority 2002, dated 2007).
# “Also recorded” adds a separate entry of the source.
# How the values were obtained:
# [1] = tested on: secretion of apoE by THP-1 cells; assay: Secretion of apoE by THP-1 cells, apoE determined by ELISA; type: cell-based, human; conditions: reference compound for assay validation
# Procedure: The THP-1 cell line was derived from the peripheral blood of a child with acute monocytic leukaemia and were obtained from the European Collection of Animal Cell Cultures (ECACC, #88081201). […] The cells were grown as non-adherent cells in RPMI 1640 culture medium, 2 mM glutamine, 20 μM 2-mercaptoethanol. Fresh medium was added to maintain cell density between 2 and 9×10^5 cells/ml. Once a week, new cultures were initiated by inoculating 10 ml of medium with 2×10^6 cells in a 75 cm^2 plate. The plates were kept at 37° C. in a 5% CO2 atmosphere. For screening, cells were seeded in 24-well plates at the density of 2×10^5 cells per well. Phorbol-12-myristat-13-acetate (PMA) was added at 0 and 5 nM to initiate TBP-1 differentiation into adherent macrophage-like cells. Vehicles, reference compounds and test compounds were added simultaneously at concentrations varying from 50 μM and incubated for 72 hours. […]
# Ninety-six well-microtiter plates were coated by incubating with a 5% gelatin solution from porcine skin, bloom 60 in 50 mM carbonate-bicarbonate buffer, pH9.6 at the concentration of 200 μl/well, for 2 hours at 37° C. The coating solution was carefully removed and the sample to be analyzed was added (100 μl/well) at the appropriate dilution. […] The absorbance at 492 nm versus 620 nm was read on a microplate photometer and the results were then converted in human apoE ng equivalent. […]
# rat plasma apoE = assay: In vivo rat model: plasma apoE by ELISA after 5 days of oral treatment
# Procedure: Rats fed a normal diet are a convenient model recently proposed for the screening of apoE modulating compounds (Leininger-Muller & Siest, 1996, herein incorporated by reference).
# (§1) This model was validated by testing the hypocholesterolemic drug gemfibrozil (200 mg/kg) as reference compound.
# (§2) […] Test compounds were given as a suspension in 20% Tween-80 supplemented with 0.5% carboxymethylcellulose. The control group received 1 ml vehicle alone. After a treatment period of 5 days, rats were weighed, sacrificed by decapitation under pentobarbital anesthesia after an overnight fast. Blood was collected on EDTA and plasma was used for analysis.
# (§3) ApoE was quantified by an ELISA method using a goat anti-apolipoprotein E antibody. Briefly, a dilution to 1/200 of rat plasma was coated on microtiter plates. ApoE was recognized by the polyclonal antibody; the conjugate antibody (anti-goat IgG peroxidase) was then added for substrate biochemical recognition. Apolipoprotein E was expressed as % change from mean control value. Cholesterol was measured with a commercially available enzymatic kit. Results were expressed as % change from control group.
# rat plasma HDLc = assay: In vivo rat model: plasma HDL cholesterol after 5 days of oral treatment; conditions: for Rat Plasma HDLc (% change): dose-response experiment, OFA rats, Day 5
# Procedure: as §1, §2, §3
# [2] = OFA rats, 200 mg/kg/day p.o. for 5 days, change from mean control value
# [3] = OFA rats, 50, 100, 200 mg/kg p.o. for 5 days
# [4] = rats fed a normal diet, 200 mg/kg/day for 5 days
smiles,measurement,setting,value
"CC1=C(/C=C/C(C)=C/C=C/C(C)=C/C(=O)O)C(C)(C)CCC1 [ATRA, all-trans retinoic acid, reference compound]",production of apoE by THP-1 cells (effect in words),[1],decreased; also recorded: potent inhibitor
same,plasma level of apoE in rats (effect in words),"rat plasma apoE; rats, dose not given",decrease
same,HDL cholesterol level in rats (effect in words),"rat plasma HDLc; rats, dose not given",decrease
"COP(=O)(OC)C(Nc1ccccn1)P(=O)(OC)OC [Compound 1, Tetramethyl N-(2-pyridyl)aminomethylenediphosphonate]",Rat Plasma apoE (% change),rat plasma apoE; [2],+69 % change
same,melting point,,162 to 164 °C
"CCOP(=O)(OCC)C(Nc1ccccn1)P(=O)(OCC)OCC [Compound 2, Tetraethyl N-(2-pyridyl)aminomethylenediphosphonate]",Rat Plasma apoE (% change),rat plasma apoE; [2],+44 % change
same,"plasma apoE level, dose dependence (in words)",rat plasma apoE; [3],increased in a dose-response way
same,Rat Plasma apoE (% change),"rat plasma apoE; dose-response experiment, OFA rats, 50 mg/kg/day p.o. for 5 days, Day 5",+38 % change
same,Rat Plasma apoE (% change),"rat plasma apoE; dose-response experiment, OFA rats, 100 mg/kg/day p.o. for 5 days, Day 5",+37 % change
same,Rat Plasma apoE (% change),"rat plasma apoE; dose-response experiment, OFA rats, 200 mg/kg/day p.o. for 5 days, Day 5",+62 % change
same,"plasma HDL cholesterol (HDLc) level, dose dependence (in words)",rat plasma HDLc; [3],increased in a dose-response way
same,Rat Plasma HDLc (% change),rat plasma HDLc; 50 mg/kg/day p.o. for 5 days,+27 % change
same,Rat Plasma HDLc (% change),rat plasma HDLc; 100 mg/kg/day p.o. for 5 days,+34 % change
same,Rat Plasma HDLc (% change),rat plasma HDLc; 200 mg/kg/day p.o. for 5 days,+68 % change
"CC(C)OP(=O)(OC(C)C)C(Nc1ccccn1)P(=O)(OC(C)C)OC(C)C [Compound 3, Tetraisopropyl N-(2-pyridyl)aminomethylenediphosphonate]",Rat Plasma apoE (% change),"rat plasma apoE; po, 200 mg/kg/day, 120 h",+16 % change
same,melting point,,98 to 100 °C
"CCOP(=O)(OCC)C(Nc1cnc2ccccc2c1)P(=O)(OCC)OCC [Compound 9, Tetraethyl N-(3-quinolinyl)aminomethylenediphosphonate]",melting point,,156 to 158 °C
"Cc1ccc(C)c(OCCCC(C)(C)C(=O)O)c1 [gemfibrozil, reference compound]",apoE increase in rats (model validation),rat plasma apoE; [4],+75%
same,HDL cholesterol increase in rats (model validation),rat plasma HDLc; [4],+42%
